Read-outs that look alike come from different tables or passages of the source.
How the values were obtained:
[1] = test system: Escherichia coli K-12 MG1655; experiment: Bacterial growth in microscale cultivation, E. coli; type: cell-based; conditions: relative to control; for activity at 0.4 µM / activity at 4 µM / activity at 40 µM: Escherichia coli
Procedure, shortened: (§1)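 Inhibitors in DMSO were added to the medium, at a maximum of 400 μM for trans-chalcone and 100 μM for 2'-hydroxychalcone. Cultures were seeded at OD600 0.5, or 0.25 for B. subtilis, and growth was followed as 620 nm backscatter in a BioLector at 1200 rpm. Final backscatter, growth rate and lag phase were compared with DMSO controls.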

[2] = target: T1, F. trinervia PEPC (Flaveria trinervia, UniProt P30694); experiment: biochemical; type: biochemical
T1 construct: the full-length ppcA gene of PEPC from F. trinervia (EMBL-Bank X61304); made in house; host or cells: Escherichia coli BL21(DE3)
T1 sequence (P30694 1-966): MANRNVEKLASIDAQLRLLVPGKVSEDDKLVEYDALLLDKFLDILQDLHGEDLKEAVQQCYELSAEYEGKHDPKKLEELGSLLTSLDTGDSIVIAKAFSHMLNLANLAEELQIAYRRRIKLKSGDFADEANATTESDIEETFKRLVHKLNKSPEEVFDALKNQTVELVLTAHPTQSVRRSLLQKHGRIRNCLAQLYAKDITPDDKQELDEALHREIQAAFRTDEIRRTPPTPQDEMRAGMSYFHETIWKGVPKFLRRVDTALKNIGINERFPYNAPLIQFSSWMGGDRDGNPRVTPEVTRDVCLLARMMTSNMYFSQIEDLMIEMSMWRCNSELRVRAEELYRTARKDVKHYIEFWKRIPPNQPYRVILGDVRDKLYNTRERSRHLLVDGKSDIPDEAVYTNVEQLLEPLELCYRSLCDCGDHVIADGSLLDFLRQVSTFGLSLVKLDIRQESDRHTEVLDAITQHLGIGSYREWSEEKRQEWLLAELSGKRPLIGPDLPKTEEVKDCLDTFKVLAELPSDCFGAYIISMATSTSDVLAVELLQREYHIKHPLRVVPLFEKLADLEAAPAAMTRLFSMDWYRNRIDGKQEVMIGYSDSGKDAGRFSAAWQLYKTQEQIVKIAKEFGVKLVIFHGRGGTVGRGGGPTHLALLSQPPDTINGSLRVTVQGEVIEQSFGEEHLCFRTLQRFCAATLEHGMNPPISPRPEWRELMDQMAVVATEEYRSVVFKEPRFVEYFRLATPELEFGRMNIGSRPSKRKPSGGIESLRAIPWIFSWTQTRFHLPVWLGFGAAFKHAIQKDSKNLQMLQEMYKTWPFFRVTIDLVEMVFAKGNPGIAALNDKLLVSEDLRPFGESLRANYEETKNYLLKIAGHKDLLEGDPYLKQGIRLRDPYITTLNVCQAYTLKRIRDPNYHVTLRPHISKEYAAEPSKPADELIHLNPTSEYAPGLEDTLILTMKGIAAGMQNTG

[3] = test system: Bacillus subtilis 168; experiment: Bacterial growth in microscale cultivation, B. subtilis; type: cell-based; conditions: relative to control
Procedure, shortened: as §1

[4] = test system: Corynebacterium glutamicum ATCC13032; experiment: Bacterial growth in microscale cultivation, C. glutamicum; type: cell-based; conditions: relative to control; for activity at 0.4 µM / activity at 4 µM / activity at 40 µM: Corynebacterium glutamicum
Procedure, shortened: as §1

## O=C(/C=C/c1ccc(O)c(O)c1)c1ccc(O)cc1O [Compound 8, 2′,4′,3,4-Tetrahydroxy-chalcone]
[1]; MG1655, complex medium, 0.4 µM, read-out: Final Backscatter
  activity at 0.4 µM: 98.9%
[1]; MG1655, complex medium, 0.4 µM, read-out: Growth rate
  activity at 0.4 µM: 102%
[1]; MG1655, complex medium, 4 µM, read-out: Final Backscatter
  activity at 4 µM: 102%
[1]; MG1655, complex medium, 4 µM, read-out: Growth rate
  activity at 4 µM: 95%
[1]; MG1655, complex medium, 40 µM, read-out: Final Backscatter
  activity at 40 µM: 95.7%
[1]; MG1655, complex medium, 40 µM, read-out: Growth rate
  activity at 40 µM: 89.4%
[1]; MG1655, minimal medium, 0.4 µM, read-out: Final Backscatter
  activity at 0.4 µM: 92.9%
[1]; MG1655, minimal medium, 0.4 µM, read-out: Growth rate
  activity at 0.4 µM: 83.9%
[1]; MG1655, minimal medium, 4 µM, read-out: Final Backscatter
  activity at 4 µM: 94.1%
[1]; MG1655, minimal medium, 4 µM, read-out: Growth rate
  activity at 4 µM: 86.4%
[1]; MG1655, minimal medium, 40 µM, read-out: Final Backscatter
  activity at 40 µM: 96.6%
[1]; MG1655, minimal medium, 40 µM, read-out: Growth rate
  activity at 40 µM: 85.3%
[1]; complex medium, 0.4 µM
  Lag Phase: 103,3%
[1]; complex medium, 4 µM
  Lag Phase: 96,7%
[1]; complex medium, 40 µM
  Lag Phase: 100,0%
[1]; minimal medium, 0.4 µM
  Lag Phase: 96,2%
[1]; minimal medium, 4 µM
  Lag Phase: 98,1%
[1]; minimal medium, 40 µM
  Lag Phase: 98,1%
[2]; C4 PEPC over C3 isoform
  Selectivity C4/C3: 29 fold
[2]; C4 PEPC, read-out: IC50 F. trinervia PEPC
  IC50: 2.2 ± 0.2 µM
[3]; Bacillus subtilis, 168, complex medium, 0.4 µM, read-out: Final Backscatter
  activity at 0.4 µM: 98.1%
[3]; Bacillus subtilis, 168, complex medium, 0.4 µM, read-out: Growth rate
  activity at 0.4 µM: 98.2%
[3]; Bacillus subtilis, 168, complex medium, 4 µM, read-out: Final Backscatter
  activity at 4 µM: 100%
[3]; Bacillus subtilis, 168, complex medium, 4 µM, read-out: Growth rate
  activity at 4 µM: 111%
[3]; Bacillus subtilis, 168, complex medium, 40 µM, read-out: Final Backscatter
  activity at 40 µM: 98.9%
[3]; Bacillus subtilis, 168, complex medium, 40 µM, read-out: Growth rate
  activity at 40 µM: 109%
[3]; Bacillus subtilis, 168, minimal medium, 0.4 µM, read-out: Final Backscatter
  activity at 0.4 µM: 85.1%
[3]; Bacillus subtilis, 168, minimal medium, 0.4 µM, read-out: Growth rate
  activity at 0.4 µM: 106%
[3]; Bacillus subtilis, 168, minimal medium, 4 µM, read-out: Final Backscatter
  activity at 4 µM: 92.1%
[3]; Bacillus subtilis, 168, minimal medium, 4 µM, read-out: Growth rate
  activity at 4 µM: 105%
[3]; Bacillus subtilis, 168, minimal medium, 40 µM, read-out: Final Backscatter
  activity at 40 µM: 94.2%
[3]; Bacillus subtilis, 168, minimal medium, 40 µM, read-out: Growth rate
  activity at 40 µM: 95.7%
[3]; complex medium, 0.4 µM
  Lag Phase: 98,3%
[3]; complex medium, 4 µM
  Lag Phase: 86,5%
[3]; complex medium, 40 µM
  Lag Phase: 105,1%
[3]; minimal medium, 0.4 µM
  Lag Phase: 107,5%
[3]; minimal medium, 4 µM
  Lag Phase: 110,3%
[3]; minimal medium, 40 µM
  Lag Phase: 90,4%
[4]; ATCC13032, complex medium, 0.4 µM, read-out: Final Backscatter
  activity at 0.4 µM: 96.6%
[4]; ATCC13032, complex medium, 0.4 µM, read-out: Growth rate
  activity at 0.4 µM: 114%
[4]; ATCC13032, complex medium, 4 µM, read-out: Final Backscatter
  activity at 4 µM: 107%
[4]; ATCC13032, complex medium, 4 µM, read-out: Growth rate
  activity at 4 µM: 134%
[4]; ATCC13032, complex medium, 40 µM, read-out: Final Backscatter
  activity at 40 µM: 108%
[4]; ATCC13032, complex medium, 40 µM, read-out: Growth rate
  activity at 40 µM: 129%
[4]; ATCC13032, minimal medium, 0.4 µM, read-out: Final Backscatter
  activity at 0.4 µM: 99%
[4]; ATCC13032, minimal medium, 0.4 µM, read-out: Growth rate
  activity at 0.4 µM: 103%
[4]; ATCC13032, minimal medium, 4 µM, read-out: Final Backscatter
  activity at 4 µM: 101%
[4]; ATCC13032, minimal medium, 4 µM, read-out: Growth rate
  activity at 4 µM: 96.6%
[4]; ATCC13032, minimal medium, 40 µM, read-out: Final Backscatter
  activity at 40 µM: 103%
[4]; ATCC13032, minimal medium, 40 µM, read-out: Growth rate
  activity at 40 µM: 102%
[4]; complex medium, 0.4 µM
  Lag Phase: 109,9%
[4]; complex medium, 4 µM
  Lag Phase: 95,4%
[4]; complex medium, 40 µM
  Lag Phase: 84,9%
[4]; minimal medium, 0.4 µM
  Lag Phase: 99,3%
[4]; minimal medium, 4 µM
  Lag Phase: 98,6%
[4]; minimal medium, 40 µM
  Lag Phase: 100,7%

From article PMC4893628, “Chalcone-based Selective Inhibitors of a C4 Plant Key Enzyme as Novel Potential Herbicides” (Scientific Reports, 2016)
